According to patent publication US20100029554A1, “Composition and Methods for Treatment of Congestive Heart Failure” (Amylin Pharmaceuticals, Inc., priority 2006, published 2010):
Where no end group is shown, it is not given here.

Tests used:
[1] = tested on: GLP-1 cyclase, rat thyroid carcinoma cells (6-23); assay: GLP-1 Cyclase (6-23) assay; format: cell-based; conditions: cAMP, 6-23 cells; values marked **
Protocol: Five μl of serially diluted peptides are transferred to the 384-well assay plate. Rat thyroid carcinoma cells (6-23) are detached from a tissue culture flask with Versene and washed once in buffer. Then 6-23 cells are resusupended in buffer at 3.0×10^6 cells/ml. Then 10 μl cells (3.0×10^4 cells) are added to all wells of the assay plate and cells are stimulated at room temperature in the dark for 30 minutes. The reaction is terminated with 10 μl of lysis buffer and incubated at room temperature for 4 hrs in the dark. cAMP content is measured using Perkin Elmer AlphaScreen™ cAMP assay kit and results are read on a Perkin Elmer Fusion fluorometer. The assay is completed in 384-well plates at 25 μl volumes.

[2] = Plasma stability; format: in vitro ADME; conditions: 20 μg/mL in plasma, 37° C., 0-5 hours
Method in brief: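 Quantification by LC-MS after MeOH quench (sample:MeOH 1:4) and centrifugation. Samples came from plasma spiked at 20 μg/mL and held at 37° C, taken at 0, 1, 2, 3, 4 and 5 h, each in triplicate.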

[3] = tested on: NH/Swiss mice; assay: Glucose lowering assay; format: in vivo, mouse; conditions: IP
Method in brief: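 Blood glucose was read by glucose oxidase biosensor on tail-prick samples before and 30, 60, 120, 180 and 240 min after intraperitoneal dosing (1 or 2 nmol/kg; vehicle 10% DMSO saline). Mice were female NH/Swiss, fasted 2 h; effect reported as percent change relative to vehicle, tested by ANOVA/Dunnett.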

[4] = tested on: GLP/GIP/CT cyclase, RIN-m5F cells; assay: GLP/GIP/CT Cyclase (RIN) assay; format: cell-based, rat; conditions: cAMP, values without **
Method in brief: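 cAMP accumulation read by AlphaScreen after lysis (4 h, room temperature, dark). Peptide dilution series applied to 2.5×10^4 rat RIN-m5F insulinoma cells per well for 30 min at room temperature, protected from light.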

[5] = tested on: NIH:Swiss mice; assay: Food intake assay; format: in vivo, mouse; conditions: IP, dose 10 nmol/kg
Protocol: All mice (NIH:Swiss mice) are housed in a stable environment of 22 (±2)° C., 60 (±10)% humidity and a 12:12 light:dark cycle; with lights on at 0300. Mice are housed in groups of three in standard cages with ad libitum access to food (Teklad: LM 485; Madison, Wis.) and water except as noted, for at least two weeks before the experiments.
All experiments are conducted between the hours of 0700 and 0900. The mice are food deprived (food removed at 1530 hr from all animals on day prior to experiment). […] The food pellet is weighed at 30-minute, 1-hr, and 2-hr intervals to determine the amount of food eaten.
Significant test sample effects are identified by ANOVA (p<0.05). Where a significicant difference exists, test means are compared to the control mean using Dunnett's test. One-way ANOVA with Dunnett's post test is performed using GraphPad Prism version 3.01 for Windows, GraphPad Software, San Diego Calif.

[6] = target: T1, GLP-1 receptors (RINm5f cell membranes) (Rattus norvegicus, UniProt P32301); assay: Receptor binding assay, RBA GLP (RIN); conditions: [125I] human GLP-1 displacement
T1 construct: RINm5f cells expressing endogenous GLP-1 receptors; endogenous in cells; host or cells: RINm5f cell membranes
T1 sequence (P32301 22-463): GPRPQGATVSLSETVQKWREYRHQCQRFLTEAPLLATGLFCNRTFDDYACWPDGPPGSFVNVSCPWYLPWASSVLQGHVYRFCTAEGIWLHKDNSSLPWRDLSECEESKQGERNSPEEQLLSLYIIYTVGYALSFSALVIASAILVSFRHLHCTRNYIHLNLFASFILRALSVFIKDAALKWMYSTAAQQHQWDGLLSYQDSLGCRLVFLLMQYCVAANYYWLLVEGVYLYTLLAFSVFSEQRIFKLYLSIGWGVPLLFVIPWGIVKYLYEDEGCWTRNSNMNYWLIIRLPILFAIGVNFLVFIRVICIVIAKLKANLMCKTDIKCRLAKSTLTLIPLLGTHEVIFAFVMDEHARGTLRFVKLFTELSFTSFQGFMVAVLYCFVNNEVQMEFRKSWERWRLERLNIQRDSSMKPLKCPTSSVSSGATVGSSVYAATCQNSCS
From the text: The well contents are harvested onto 96 well glass fiber plates using a Perkin Elmer plate harvestor. Dried glass fiber plates are combined with scintillant and counted on a Perkin Elmer scintillation counter.

Compound | EC50 [1] | plasma stability as compared to native GLP-1 [2] | GLU LOWERING AUC240 @2 nmol/kg ([3]; 2 nmol/kg, change in blood glucose relative to vehicle) | EC50 [4] | FOOD INTAKE at 60 min [5] | GLU LOWERING AUC240 @1 nmol/kg ([3]; 1 nmol/kg) | IC50 [6]
CC[C@H](C)[C@H](NC(=O)[C@H](Cc1ccccc1)NC(=O)[C@H](CC(C)C)NC(=O)[C@H](CCCNC(=N)N)NC(=O)[C@@H](NC(=O)[C@H](C)NC(=O)[C@H](CCC(=O)O)NC(=O)[C@H](CCC(=O)O)NC(=O)[C@H](CCC(=O)O)NC(=O)[C@H](CC(C)C)NC(=O)[C@H](Cc1ccc(O)cc1)NC(=O)[C@H](CCC(=O)O)NC(=O)[C@@H](NC(=O)[C@@H](NC(=O)[C@H](CC(=O)O)NC(=O)[C@H](CC(N)=O)NC(=O)[C@@H](NC(=O)[C@H](Cc1ccc(O)cc1)NC(=O)[C@@H](NC(=O)CNC(=O)[C@H](CCC(=O)O)NC(=O)CNC(=O)[C@@H](N)Cc1c[nH]cn1)[C@@H](C)O)[C@@H](C)O)C(C)C)[C@@H](C)O)C(C)C)C(=O)N[C@@H](CCC(=O)O)C(=O)N[C@@H](Cc1c[nH]c2ccccc12)C(=O)N[C@@H](CC(C)C)C(=O)N[C@@H](CCCCN)C(=O)N[C@@H](CCC(N)=O)C(=O)NCC(=O)NCC(=O)N1CCC[C@H]1C(=O)N[C@@H](CO)C(=O)N[C@@H](CO)C(=O)NCC(=O)N[C@@H](C)C(=O)N1CCC[C@H]1C(=O)N1CCC[C@H]1C(=O)N1CCC[C@H]1C(=O)N[C@@H](CO)C(N)=O [Cmpd 5130] | 0.0544 nM | increased plasma stability | −22% | 0.89 nM |  |  | 
HGEGTFTSDLVKILEAEAVRKFIEFLKNGGPSSGAPPPS-NH2 [Cmpd 5529] | 0.388 nM |  |  |  |  |  | 
CC[C@H](C)[C@H](NC(=O)[C@H](Cc1ccccc1)NC(=O)[C@H](CCC(=O)O)NC(=O)[C@H](CCCCN)NC(=O)[C@H](C)NC(=O)[C@H](C)NC(=O)[C@H](CCCCN)NC(=O)[C@H](CCC(=O)O)NC(=O)[C@H](CCC(=O)O)NC(=O)[C@H](CC(C)C)NC(=O)[C@H](CCC(N)=O)NC(=O)[C@H](CCCCN)NC(=O)[C@H](CO)NC(=O)[C@H](CC(C)C)NC(=O)[C@H](CC(=O)O)NC(=O)[C@H](CO)NC(=O)[C@@H](NC(=O)[C@H](Cc1ccccc1)NC(=O)[C@@H](NC(=O)CNC(=O)[C@H](CCC(=O)O)NC(=O)CNC(=O)[C@@H](N)Cc1c[nH]cn1)[C@@H](C)O)[C@@H](C)O)C(=O)N[C@@H](CCC(=O)O)C(=O)N[C@@H](Cc1c[nH]c2ccccc12)C(=O)N[C@@H](CC(C)C)C(=O)N[C@@H](CCCCN)C(=O)N[C@@H](CCC(N)=O)C(=O)NCC(=O)NCC(=O)N1CCC[C@H]1C(=O)N[C@@H](CO)C(=O)N[C@@H](CO)C(=O)NCC(=O)N[C@@H](C)C(=O)N1CCC[C@H]1C(=O)N1CCC[C@H]1C(=O)N1CCC[C@H]1C(=O)N[C@@H](CO)C(N)=O [Cmpd 5100] |  | increased plasma stability |  |  | −66% | −16% | 1.8 nM
